Results reported in patent US20230203485A1, “METHODS FOR MODULATING MHC-I EXPRESSION AND IMMUNOTHERAPY USES THEREOF” (Dana-Farber Cancer Institute, Inc., priority 2020, published 2023).

Test system: class I antigen presentation gene expression in MCC cell lines
Assay: RNA-seq / DESeq2 differential expression of MCC cell lines at baseline and after IFN-γ stimulation
Assay type: cell-based, human
Details: 11 MCC cell lines, baseline vs IFNγ, negative LFC = upregulation in IFNγ-treated
Protocol: FIG. 2A comprises RNA-seq heatmaps of class I antigen presentation gene expression in MCC lines and controls.
FIG. 2B is a volcano plot of differentially expressed genes (genes below FDR cutoff 0.01 are shown in yellow) between baseline and IFN-γ-treated MCC cell lines. Differential expression analysis was performed using DESeq2, and negative LFC indicates increased expression in +IFN-γ samples. IFN genes are highlighted in red.
RNA samples were first assessed for quality using the Agilent Bioanalyzer (DV200 metric). One hundred ng of RNA were used as the input for first strand cDNA synthesis using Superscript III reverse transcriptase and Illumina's TruSeq RNA Access Sample Prep Kit. Synthesis of the second strand of cDNA was followed by indexed adapter ligation with UMI (unique molecular index) adaptors. Subsequent PCR amplification enriched for adapted fragments. Amplified libraries were quantified, normalized, pooled, and hybridized with exome targeting oligos. Following hybridization, bead clean-up, elution and PCR was performed to prepare library pools for sequencing on Illumina flowcell lanes. Transcriptomes were sequenced to a coverage of at least 50 million reads in pairs.
Raw fastq files for fibroblast and keratinocyte control lines were downloaded from SRA using R Bioconductor package SRAdb (Mayakonda et al. (2018) supra; Zhu et al. (2013) BMC Bioinformatics 14 (1): 1-4) using accession codes SRP126422 (4 replicates from control samples ‘NN’) and SRP131347 (6 replicates with condition: control and genotype: control). These fastq files, along with those for the mkl1 and waga cell lines, were aligned using STAR version 2.7.3a (Dobin et al. (2013) Bioinformatics 29 (1): 15-21), using index genome reference file downloaded from ftp.ebi.ac.uk/pub/databases/gencode/Gencode_human/release_19/GRCh37.p13.genome.fa.gz, transcript annotation file downloaded from data.broadinstitute.org/snowman/hg19/star/gencode.v19.annotation.gtf, and with the following options: --twopassMode Basic, --outSAMstrandField intronMotif, --alignIntronMax 1000000, --alignMatesGapMax 1000000, --sjdbScore 2, --outSAMtype BAM Unsorted, --outSAMattributes NH HI NM MD AS XS, --outFilterType BySJout, --outSAMunmapped Within, --genomeLoad NoSharedMemory, --outFilterScoreMinOverLread 0, --outFilterMatchNminOverLread 0, --outFilterMismatchNmax 999, and outFilterMultimapNmax 20. Duplicates were marked with picard MarkDuplicates version 2.22.0-SNAPSHOT.
RNA-sequencing bam files for MCC tumor and cell line samples were downloaded from the Broad Genomics Firecloud/Terra platform using the Google Cloud Storage command line tool gsutil version 4.5 (github.com/GoogleCloudPlatform/gsutil/).
Gene counts were obtained from bam files using featureCounts version 2.0.0 (doi.org/10.1093/bioinformatics/btt656). Very lowly expressed genes with average count across samples less than 1 were excluded from analysis. Between-sample distance metrics were computed using the Euclidean distance on the vectors of variance-stabilized counts obtained from the vst function in the DESeq2 R Bioconductor package ([…]; Love et al. (2014) Genome Biology 15 (12): 550).
Differential expression analysis was carried out between (1) viral positive and viral negative samples (adjusting for cell line or tumor as a covariate), (2) cell line and tumor samples (adjusting for viral status as a covariate), and (3) IFNγ plus and minus samples (adjusting for viral status as a covariate) using the negative binomial GLM Wald test of DESeq2, where significance was assessed using the p-values adjusted for multiple comparisons under default settings. To account for potential global gene expression differences among sample groups, RUVg (Risso et al. (2014) […] 32 (9): 896-902) was used to estimate latent factors of unwanted variation from the list of housekeeping genes downloaded from www.tau.ac.il/˜elieis/HKG/HK_genes.txt. […]

IFN-y: type II interferon, recombinant human, used to treat MCC cells
log2FoldChange PLCH1 (ENSG00000114805.12): −3.192 | log2FoldChange PLSCR1 (ENSG00000188313.8): −1.918 | log2FoldChange PSMA1 (ENSG00000129084.13): −0.53 | log2FoldChange PSMA5 (ENSG00000143106.8): −0.7265 | log2FoldChange PSMB8 (ENSG00000204264.4): −4.624 | log2FoldChange PSMB8-AS1 (ENSG00000204261.4): −4.829 | log2FoldChange PSMB9 (ENSG00000240065.3): −8.037 | log2FoldChange RAB19 (ENSG00000146955.6): −3.348 | log2FoldChange RALB (ENSG00000144118.9): −1.199 | log2FoldChange RARRES3 (ENSG00000133321.6): −9.075 | log2FoldChange RASGRP3 (ENSG00000152689.13): −3.804 | log2FoldChange RCN1 (ENSG00000049449.4): −0.8151 | log2FoldChange RNASET2 (ENSG00000026297.11): −1.4 | log2FoldChange RNF19B (ENSG00000116514.12): −0.8512 | log2FoldChange RPS6KA2-AS1 (ENSG00000231654.1): −4.029 | log2FoldChange RSAD2 (ENSG00000134321.7): −4.639 | log2FoldChange RTP4 (ENSG00000136514.2): −9.766 | log2FoldChange RUFY4 (ENSG00000188282.8): −4.154 | log2FoldChange SAMD9L (ENSG00000177409.7): −9.221 | log2FoldChange SCYL3 (ENSG00000000457.9): −0.6381 | log2FoldChange SERPING1 (ENSG00000149131.11): −10.06 | log2FoldChange SERPINI2 (ENSG00000114204.10): −4.132 | log2FoldChange SLC15A3 (ENSG00000110446.5): −6.048 | log2FoldChange SMCO3 (ENSG00000179256.2): −4.85 | log2FoldChange SP100 (ENSG00000067066.12): −6.178 | log2FoldChange SP110 (ENSG00000135899.12): −5.912 | log2FoldChange SP140 (ENSG00000079263.14): −4.071 | log2FoldChange SP140L (ENSG00000185404.12): −4.749 | log2FoldChange SPATA1 (ENSG00000122432.12): −1.828 | log2FoldChange SRD5A3-AS1 (ENSG00000249700.4): −1.935 | log2FoldChange STAT1 (ENSG00000115415.14): −4.434 | log2FoldChange STAT2 (ENSG00000170581.9): −2.028 | log2FoldChange SYNJ2 (ENSG00000078269.9): −1.182 | log2FoldChange TAP1 (ENSG00000168394.9): −6.326 | log2FoldChange TAP2 (ENSG00000204267.9): −4.845 | log2FoldChange TAPBP (ENSG00000231925.7): −2.025 | log2FoldChange TAPBPL (ENSG00000139192.7): −2.548 | log2FoldChange TCAF2 (ENSG00000170379.15): −3.033 | log2FoldChange TDRD7 (ENSG00000196116.6): −0.8648 | log2FoldChange TLR3 (ENSG00000164342.8): −6.019 | log2FoldChange TMEM108-AS1 (ENSG00000251011.1): −3.649 | log2FoldChange TMEM140 (ENSG00000146859.6): −7.381 | log2FoldChange TNFRSF14 (ENSG00000157873.13): −3.995 | log2FoldChange TNFSF10 (ENSG00000121858.6): −4.43 | log2FoldChange TRIM5 (ENSG00000132256.14): −4.923 | log2FoldChange TRIM21 (ENSG00000132109.8): −5.586 | log2FoldChange TRIM22 (ENSG00000132274.11): −9.394 | log2FoldChange TRIM26 (ENSG00000234127.4): −0.6803 | log2FoldChange TRIM56 (ENSG00000169871.8): −2.411 | log2FoldChange UBA7 (ENSG00000182179.6): −5.004 | log2FoldChange UBE2L6 (ENSG00000156587.11): −4.982 | log2FoldChange UBR2 (ENSG00000024048.6): −0.9247 | log2FoldChange USP33 (ENSG00000077254.10): −0.3836 | log2FoldChange USP42 (ENSG00000106346.7): −0.5211 | log2FoldChange WDR49 (ENSG00000174776.6): −4.564 | log2FoldChange ZC3HAV1 (ENSG00000105939.8): −1.2 | log2FoldChange (ACP5 ENSG00000102575.6): −3.911 | log2FoldChange (B2M ENSG00000166710.13): −3.927 | log2FoldChange (BCO1 ENSG00000135697.5): −3.705 | log2FoldChange (BST2 ENSG00000130303.8): −9.567 | log2FoldChange (C19orf38 ENSG00000214212.4): −2.581 | log2FoldChange (C19orf66 ENSG00000130813.13): −3.602 | log2FoldChange (CAPN3 ENSG00000092529.18): −1.639 | log2FoldChange (CCDC194 ENSG00000269720.1): −5.08 | log2FoldChange (CCL8 ENSG00000108700.4): −4.991 | log2FoldChange (CCL25 ENSG00000131142.9): −5.742 | log2FoldChange (CEACAM1 ENSG00000079385.17): −6.01 | log2FoldChange (CIITA ENSG00000179583.13): −10.08 | log2FoldChange (CX3CL1 ENSG00000006210.6): −2.039 | log2FoldChange (DGLUCY ENSG00000133943.16): −1.417 | log2FoldChange (DHX58 ENSG00000108771.8): −3.063 | log2FoldChange (DLGAP1-AS5 ENSG00000261520.1): −7.006 | log2FoldChange (DOCK9 ENSG00000088387.13): −1.102 | log2FoldChange (DRAM1 ENSG00000136048.9): −2.646 | log2FoldChange (ENSG00000225131.1 (symbol NA)): −1.967 | log2FoldChange (ENSG00000238045.5 (symbol NA)): −1.974 | log2FoldChange (ENSG00000238528.1 (symbol NA)): −1.287 | log2FoldChange (ENSG00000258733.1 (symbol NA)): −3.393
